Tested on: soybean plants
Assay: Pre- and post-emergence dicamba tolerance of transgenic soybean
Type: in vivo
Settings: wild type soybean; dicamba at post-V3 stage at 1 lb/a rate
Excerpt: Several DMO expression units were constructed by operably linking one of each various promoters, CTPs, DMO variants, and 3′UTRs to obtain efficient DMO expression units for product development.

COc1c(Cl)ccc(Cl)c1C(=O)O [dicamba, 3,6-dichloro-o-anisic acid]
injury rate: 60%

From patent US8420888B2, “Chloroplast transit peptides for efficient targeting of DMO and uses thereof” (Monsanto Technology LLC, priority 2007, dated 2013)
